In ChEMBL document CHEMBL3217545, “Synthesis and study of 2-acetyl amino-3-[4-(2-amino-5-sulfo-phenylazo)-phenyl]-propionic acid: a new class of inhibitor for hen egg white lysozyme amyloidogenesis” (Medchemcomm, 2013):
Calls of active or inactive are those of the source. The rule behind the calls is not given here.

Columns and labels:
[1] = target: Lysozyme C (Gallus gallus) (UniProt P00698); assay: Inhibition of hen egg white lysozyme fibrillization at 2 x 10^-4 M after 15 days by congo red dye-based crossed polarized optical microscopic analysis
[2] = target: Lysozyme C (Gallus gallus) (UniProt P00698); assay: Binding affinity to hen egg white lysozyme assessed as formation of enzyme/compound complex formation at 2 x 10^-4 M by TCSPC spectroscopic analysis
[3] = target: Lysozyme C (Gallus gallus) (UniProt P00698); assay: Binding affinity to hen egg white lysozyme at 2 x 10^-4 M by UV/Vis spectroscopic analysis
[4] = target: Lysozyme C (Gallus gallus) (UniProt P00698); assay: Inhibition of beta-sheet aggregation of hen egg white lysozyme at 2 x 10^-4 M after 15 days by FT-IR spectroscopic analysis
[5] = target: Lysozyme C (Gallus gallus) (UniProt P00698); assay: Inhibition of hen egg white lysozyme fibrillization assessed as diameter of granular aggregate at 2 x 10^-4 M after 15 days by atomic force microscopic analysis (reference value: 50 to 80 nm)
[6] = target: Lysozyme C (Gallus gallus) (UniProt P00698); assay: Inhibition of beta-sheet aggregation of hen egg white lysozyme at 2 x 10^-4 M after 15 days by CD spectroscopic analysis
[7] = Cytotoxicity against neuronal cells (unknown origin) by MTT assay; type: cell-based; conditions: neuron
[8] = target: Lysozyme C (Gallus gallus) (UniProt P00698); assay: Inhibition of hen egg white lysozyme fibrillization at 2 x 10^-4 M after 2 weeks by congo red dye-based UV/Vis spectroscopic analysis
[9] = target: Lysozyme C (Gallus gallus) (UniProt P00698); assay: Binding affinity to hen egg white lysozyme at 2 x 10^-4 M by fluorescence spectroscopic analysis
[10] = target: Lysozyme C (Gallus gallus) (UniProt P00698); assay: Inhibition of hen egg white lysozyme fibrillization at 2 x 10^-4 M up to 100 hrs by Thioflavin T-based fluorescence assay

Chain of Lysozyme C (Gallus gallus) (P00698 whole entry): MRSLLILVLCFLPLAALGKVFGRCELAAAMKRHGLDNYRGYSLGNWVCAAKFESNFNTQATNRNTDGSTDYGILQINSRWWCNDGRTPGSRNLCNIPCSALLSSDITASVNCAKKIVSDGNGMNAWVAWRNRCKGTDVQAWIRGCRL

Row | inhibition [1] | Activity [2] | Activity [3] | inhibition [4] | Activity [5] [nm] | inhibition [6] | inhibition [8] | Activity [9] | inhibition [10] | Structure (SMILES) | Activity [7]
1 | Active | Active | Active | Active | 100 | Active | Active | Active | Active | Nc1ccc(S(=O)(=O)O)cc1/N=N/c1ccc(C[C@H](NC(=O)C(F)(F)F)C(=O)O)cc1 | Non-toxic
2 | Active | Active | Active | Active | 100 | Active | Active | Active | Active | CC(=O)N[C@@H](Cc1ccc(/N=N/c2cc(S(=O)(=O)O)ccc2N)cc1)C(=O)O | Non-toxic
